Data reported in paper PMC7849013, “Structural Investigations of the Inhibition of Escherichia coli AmpC β-Lactamase by Diazabicyclooctanes” (Antimicrobial Agents and Chemotherapy, 2021).
≈ marks a conversion by molar mass, not a printed value. Where “and” joins values, the source holds several entries; their conditions need not be identical. Identical values can stand only once.

Assays:
PDC-3 = test system: PDC-3; design: method as in earlier work; conditions: ref [2]; cited from earlier work
[1] = test system: DH5α E. coli containing the pAD7-AmpCEC plasmid; assay: MIC by broth microdilution, AmpCEC-producing strain; type: cell-based, Escherichia coli; conditions: for MIC: Escherichia coli, read-out: Minimum Inhibitory Concentration, compound alone, DH5α pAD7 AmpCEC
Description: (§1) MICs were determined by broth microdilutions in triplicate and interpreted using published guidelines described by the CLSI. […] DBOs were also tested as the sole administered antimicrobial (0.25 to 256 μg ml^−1) against both strains (Table S5).

[2] = biological target: T1, AmpC SBL from Escherichia coli (AmpCEC) (Escherichia coli, UniProt P00811); assay: Steady-state competitive inhibition kinetics of AmpCEC with fluorescent substrate FC-5 (kobs, Kiapp, k2/K); type: biochemical
T1 construct: made in house
Description: (§2) Assays were performed and analyzed as described previously ([34]). In summary, assays in the presence of inhibitors were carried out under steady-state conditions monitoring hydrolysis of the fluorescent substrate FC-5 ([33]) in 100 mM phosphate buffer, pH 7.5, supplemented with 0.01% (vol/vol) Triton X-100. Fluorescence was measured using a PHERAstar (BMG Labtech) plate reader, recording emission spectra at an excitation wavelength of 380 nm and emission wavelength of 460 nm. […] The pseudo first-order rate constant, kobs, and the apparent inhibition constant, Kiapp, were obtained by assaying 100 nM AmpCEC with 5 μM FC-5 in the presence of various concentrations of the inhibitor. Reactions were initiated by addition of AmpCEC and immediately monitored continuously over 30 s. […] The second-order rate constant (k2/K) was obtained from linear regression of measured kobs values against inhibitor concentrations (see Fig. S3b in the supplemental material) and corrected by the Michaelis constant (Km) and concentration of the substrate. Kiapps ([50]) were determined by linear regression of the reciprocals of the initial rates against inhibitor concentration (Fig. S3a) and corrected using the experimentally determined substrate Km and substrate concentration. Inhibitor off rates (koff) were measured using the jump-dilution method ([51]); thus, AmpCEC (1 μM) was incubated with the respective inhibitor (10 μM) for 30 min at room temperature and diluted 100,000-fold in the assay buffer to a final enzyme concentration of 10 pM and then immediately assayed using 25 μM (final concentration) FC-5. Off rates were determined from exponential regression in relation to turnover of no enzyme and no inhibitor controls (Fig. S3c). Half-lives of the enzyme-inhibitor complexes were directly calculated from the measured koff values.
Figure S1: Progression curves used in kobs determinations. AmpCEC (100 nM) was assayed using FC-5 (5 μM)
Reactions were initiated by addition of
AmpCEC and immediately monitored, as described in Materials and Methods. Buffer: 50 mM phosphate buffer, pH
7.5 and 0.01% (v/v) Triton X-100. Curves were fitted to Equation 5.
(A) Determination of Kiapp values
for AmpCEC inhibition by DBOs. […]

ADC-7 = biological target: ADC-7; design: method as in earlier work; conditions: ref [2], cited from earlier work; for Ki: read-out: Kiapp
E. coli ATCC 25922 = test system: E. coli ATCC 25922; design: method as in PMID 30861342; conditions: E. coli ATCC 25922, compound alone; cited from earlier work
[3] = test system: DH5α Escherichia coli (wt); assay: MIC by broth microdilution, wild-type strain; type: cell-based; conditions: compound alone, read-out: Minimum Inhibitory Concentration
Description: as §1

PDC-1 = test system: PDC-1; design: method as in earlier work; conditions: ref [2]; cited from earlier work
[4] = biological target: T1, AmpC SBL from Escherichia coli (AmpCEC); assay: Jump-dilution off-rate of AmpCEC-DBO carbamoyl complexes (FC-5); type: biochemical; conditions: jump dilution 100,000-fold; 1 μM AmpCEC preincubated with 10 μM DBO 30 min at room temperature; 25 μM FC-5
Description: as §2, with “Inhibitor off rates (koff) were measured using the jump-dilution method ([51]); thus, AmpCEC (1 μM) was incubated with the respective inhibitor (10 μM) for 30 min at room temperature and diluted 100,000-fold in the assay buffer to a final enzyme concentration of 10 pM and then immediately assayed using 25 μM (final concentration) FC-5.” left out, “Half-lives of the enzyme-inhibitor complexes were directly calculated from the measured koff values.” left out

[5] = biological target: T1, AmpC SBL from Escherichia coli (AmpCEC); assay: AmpCEC inhibition pIC50 with varied preincubation time and pH (FC-5); type: biochemical
Description: as §2
pre-incubated with the inhibitors for the indicated times at room temperature and assayed using 5 μM FC-5 [1].
(1 picture or pasted object on this page, not shown here)
AmpCEC (500 pM) was preincubated
with the inhibitors for the indicated times at room temperature, then assayed using 5 μM FC-5 [1]. Buffer: 50 mM
regression (Figure S2), as described in the Materials and Methods.

[6] = biological target: T1, AmpC SBL from Escherichia coli (AmpCEC); assay: as above; type: biochemical; remark: listed apart in the source
[7] = [DBO] 5.00 µM, 100 nM AmpCEC, 5 μM FC-5
[8] = pIC50, 0 min preincubation, pH 7.5, 500 pM AmpCEC, 5 μM FC-5
[9] = pIC50, 10 min preincubation, pH 7.5
[10] = pIC50, 30 min preincubation, pH 7.5
[11] = pIC50, 60 min preincubation, pH 7.5
[12] = pIC50, 360 min preincubation, pH 7.5, 500 pM AmpCEC, 5 μM FC-5
[13] = pIC50, 0 min preincubation, pH 7.0
[14] = pIC50, 0 min preincubation, pH 8.0
[15] = pIC50, 10 min preincubation, pH 7.0
[16] = pIC50, 10 min preincubation, pH 8.0
[17] = pIC50, 30 min preincubation, pH 7.0
[18] = pIC50, 60 min preincubation, pH 7.0
[19] = pIC50, 60 min preincubation, pH 8.0
[20] = pIC50, 360 min preincubation, pH 7.0
[21] = pIC50, 360 min preincubation, pH 8.0

T1 sequence (P00811 20-377): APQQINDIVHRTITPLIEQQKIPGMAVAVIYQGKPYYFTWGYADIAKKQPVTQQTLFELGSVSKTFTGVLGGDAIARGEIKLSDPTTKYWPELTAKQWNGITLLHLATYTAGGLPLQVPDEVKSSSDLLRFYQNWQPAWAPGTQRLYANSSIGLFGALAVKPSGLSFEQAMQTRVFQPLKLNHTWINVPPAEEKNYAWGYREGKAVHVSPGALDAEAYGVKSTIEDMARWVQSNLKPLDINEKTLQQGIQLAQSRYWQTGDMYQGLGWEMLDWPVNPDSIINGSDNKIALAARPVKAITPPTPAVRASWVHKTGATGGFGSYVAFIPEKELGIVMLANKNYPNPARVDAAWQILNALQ

SMILES	k2/K (PDC-3)	t1/2 (PDC-3) [min]	MIC [1] [µg/mL]	kobs ([2]; [DBO] 0.04 µM)	kobs ([2]; [DBO] 0.16 µM)	kobs ([2]; [DBO] 0.31 µM)	kobs ([2]; [DBO] 0.63 µM)	kobs ([2]; [DBO] 1.25 µM)	kobs [2, 7]	k2/K (ADC-7)	t1/2 (ADC-7) [min]	MIC (E. coli ATCC 25922) [µg/mL]	MIC [3] [µg/mL]	IC50 [5, 8] [nM]	IC50 [5, 9] [nM]	IC50 [5, 10] [nM]	IC50 [5, 11] [nM]	IC50 [5, 12] [nM]	Ki [2] [nM]	IC50 [6, 13] [nM]	other results
NC(=O)[C@@H]1CC[C@@H]2CN1C(=O)N2OS(=O)(=O)O [AVI, avibactam]	29 (M-1s-1) x 10 3	14	16 (≈ 60.3 µM)	0.135 ± 0.002	0.134 ± 0.001	0.135 ± 0.006	0.144 ± 0.002	0.168 ± 0.008	0.305 ± 0.004	3.9 ± 0.4 (M-1s-1) x 10 3	33 ± 5	16 (≈ 60.3 µM)	16 (≈ 60.3 µM)								Ki (ADC-7): 19000 ± 2000 nM; k2/K (PDC-1): 2900 (M-1s-1) x 10 3; t1/2 (PDC-1): 6 min
CC(C)(O/N=C(\C(=O)N[C@@H]1C(=O)N2C(C(=O)[O-])=C(C[n+]3ccccc3)CS[C@H]12)c1csc(N)n1)C(=O)O [CAZ, ceftazidime]			256 (≈ 468 µM)										1 (≈ 1.83 µM)								
NCCONC(=O)[C@@H]1CC[C@@H]2CN1C(=O)N2OS(=O)(=O)O [NAC, nacubactam]			4 (≈ 12.3 µM)	0.142 ± 0.003	0.142 ± 0.003	0.153 ± 0.005	0.153 ± 0.002	0.185 ± 0.003	0.393 ± 0.008			2 (≈ 6.17 µM)	2 (≈ 6.17 µM)	178	66.1	34.7	13.8	2.95	5000 ± 100	200	koff (decarbamoylation rate) [4]: 0.049 s^−1, ×10^−3 and 0.049 ± 0.01 s^−1, ×10^−3; Minimum Inhibitory Concentration ([1]; compound alone, DH5α pAD7 AmpCEC): 2 µg/mL; kinact/KI ([2]; pH 7.5, read-out: k2/K (carbamoylation rate)): 52000 ± 2000 M⁻¹ s⁻¹; IC50 [6, 14]: 141 nM; IC50 [6, 15]: 91.2 nM; IC50 [6, 16]: 58.9 nM; IC50 [6, 17]: 31.6 nM; IC50 [6, 18]: 16.2 nM; IC50 [6, 19]: 15.1 nM; IC50 [6, 20]: 6.46 nM; IC50 [6, 21]: 5.13 nM
O=C(NC1CCNCC1)[C@@H]1CC[C@@H]2CN1C(=O)N2OS(=O)(=O)O [REL, relebactam]	46 ± 5 (M-1s-1) x 10 3	13 ± 4	128 (≈ 367 µM)	0.134 ± 0.007	0.138 ± 0.003	0.136 ± 0.002	0.143 ± 0.002	0.167 ± 0.005	0.314 ± 0.012	7.8 ± 0.8 (M-1s-1) x 10 3	39 ± 4	> 64	128 (≈ 367 µM)	245	107	34.7	20.4	3.89	7100 ± 300	166	IC50 [6, 14]: 158 nM; IC50 [6, 15]: 115 nM; IC50 [6, 16]: 63.1 nM; IC50 [6, 17]: 49 nM; IC50 [6, 18]: 17.4 nM; IC50 [6, 19]: 13.2 nM; IC50 [6, 20]: 4.17 nM; IC50 [6, 21]: 10.5 nM
O=C(NNC(=O)[C@@H]1CC[C@@H]2CN1C(=O)N2OS(=O)(=O)O)[C@@H]1CCCNC1 [ZID, zidebactam]	480 ± 70 (M-1s-1) x 10 3	3 ± 0.4	≤ 0.25	0.150 ± 0.002	0.183 ± 0.002	0.246 ± 0.002	0.357 ± 0.003			35 ± 4 (M-1s-1) x 10 3	11 ± 1	0.125 (≈ 0.319 µM)	≤ 0.25	25.1	11	7.59	4.68	3.47	690 ± 40	34.7	Ki (ADC-7): 2300 ± 300 nM; IC50 [6, 14]: 17 nM; IC50 [6, 15]: 16.6 nM; IC50 [6, 16]: 8.13 nM; IC50 [6, 17]: 8.71 nM; IC50 [6, 18]: 5.75 nM; IC50 [6, 19]: 3.89 nM; IC50 [6, 20]: 5.25 nM; IC50 [6, 21]: 4.37 nM
